# Values of other authors in patent US20210015755A1, “SECNIDAZOLE SOFT GELATIN CAPSULE AND METHODS AND USES THEREOF” (Lupin Inc., priority 2019, published 2021).
SMILES,excreted intact in the urine (in vivo),absorption after oral administration (oral administration),effectiveness in the treatment of bacterial vaginosis (bacterial vaginosis; 500 mg ovule formulation versus 37.5 mg metronidazole gel (Sanchez et al.)),cure rates (bacterial vaginosis; intravaginal 750 mg ovule formulation versus 500 mg ovule composition (Aguin et al.))
"Cc1ncc([N+](=O)[O-])n1CC(C)O (stereo not shown) [Secnidazole, 1-(2-hydroxypropyl)-2-methyl-5-nitromidazole]",50%,rapidly and completely absorbed,–,–
Cc1ncc([N+](=O)[O-])n1CCO [metronidazole],–,–,significantly more effective,higher cure rates
